Reference: ChEMBL document CHEMBL1201862, “PubChem BioAssay data set” (2004)
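A five-concentration, 48-hour dose response in 96-well plates underlies each endpoint, interpolated linearly between surrounding concentrations. Here, GI50 denotes the concentration required for 50% inhibition of growth.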 Active and inactive are the calls of the source. Rule as the data show it: active = GI50 up to about 1.1 µM and inactive = higher.

Assays:
Assay in all cases: inhibition of tumour cell growth, NCI panel, 48 h
U-251 = system: U-251
OVCAR-4 = system: OVCAR-4
M14 = system: M14
KM12 = system: KM12
NCI-H460 = system: NCI-H460
SK-OV-3 = system: SK-OV-3
DLD-1 = system: DLD-1
UACC-62 = system: UACC-62
OVCAR-5 = system: OVCAR-5
SNB-75 = system: SNB-75
SK-MEL-28 = system: SK-MEL-28
HT-29 = system: HT-29
HCC 2998 = system: HCC 2998
NCI-H23 = system: NCI-H23
EKVX = system: EKVX
SNB-19 = system: SNB-19
SN12C = system: SN12C
HOP-18 = system: HOP-18
A498 = system: A498
A549 = system: A549
DMS-114 = system: DMS-114
SW-620 = system: SW-620
SF-295 = system: SF-295
KM-20L2 = system: KM-20L2
SF-268 = system: SF-268
MOLT-4 = system: MOLT-4
ACHN = system: ACHN
Malme-3M = system: Malme-3M
OVCAR-8 = system: OVCAR-8
M19-MEL = system: M19-MEL
CAKI-1 = system: CAKI-1
RXF 631 = system: RXF 631
SNB-78 = system: SNB-78
UO-31 = system: UO-31
CCRF-CEM = system: CCRF-CEM
IGROV-1 = system: IGROV-1
RPMI-8226 = system: RPMI-8226
HCT-116 = system: HCT-116
HCT-15 = system: HCT-15
LOX IMVI = system: LOX IMVI
LXFL 529 = system: LXFL 529
K562 = system: K562
786-0 = system: 786-0
SF-539 = system: SF-539
NCI-H522 = system: NCI-H522
NCI-H226 = system: NCI-H226
DMS-273 = system: DMS-273
HOP-62 = system: HOP-62
COLO 205 = system: COLO 205
HOP-92 = system: HOP-92
OVCAR-3 = system: OVCAR-3
SK-MEL-2 = system: SK-MEL-2
TK-10 = system: TK-10
HL-60 = system: HL-60
UACC-257 = system: UACC-257
SK-MEL-5 = system: SK-MEL-5
RXF 393 = system: RXF 393
SR = system: SR

Q: For NC(CCCCNCc1ccccc1)C(=O)O (stereo unspecified), which GI50 (U-251) is on record?
A: > 100 µM (inactive)

Q: And the GI50 (OVCAR-4)?
A: > 100 µM (inactive)

Q: And the GI50 (M14)?
A: > 100 µM (inactive)

Q: What about the GI50 (KM12) of the same compound?
A: > 100 µM (inactive)

Q: And the GI50 (NCI-H460)?
A: > 100 µM (inactive)

Q: And the GI50 (SK-OV-3)?
A: > 100 µM (inactive)

Q: And the GI50 (DLD-1)?
A: > 100 µM (inactive)

Q: What about the GI50 (UACC-62) of the same compound?
A: > 100 µM (inactive)

Q: And the GI50 (OVCAR-5)?
A: > 100 µM (inactive)

Q: What about the GI50 (SNB-75) of the same compound?
A: > 100 µM (inactive)

Q: And the GI50 (SK-MEL-28)?
A: > 100 µM (inactive)

Q: And the GI50 (HT-29)?
A: > 100 µM (inactive)

Q: What about the GI50 (HCC 2998) of the same compound?
A: > 100 µM (inactive)

Q: What about the GI50 (NCI-H23) of the same compound?
A: > 100 µM (inactive)

Q: What about the GI50 (EKVX) of the same compound?
A: > 100 µM (inactive)

Q: And the GI50 (SNB-19)?
A: > 100 µM (inactive)

Q: And the GI50 (SN12C)?
A: > 100 µM (inactive)

Q: And the GI50 (HOP-18)?
A: > 100 µM (inactive)

Q: And the GI50 (A498)?
A: > 100 µM (inactive)

Q: What about the GI50 (A549) of the same compound?
A: > 100 µM (inactive)

Q: What about the GI50 (DMS-114) of the same compound?
A: > 100 µM (inactive)

Q: What about the GI50 (SW-620) of the same compound?
A: > 100 µM (inactive)

Q: What about the GI50 (SF-295) of the same compound?
A: > 100 µM (inactive)

Q: What about the GI50 (KM-20L2) of the same compound?
A: > 100 µM (inactive)

Q: And the GI50 (SF-268)?
A: > 100 µM (inactive)

Q: What about the GI50 (MOLT-4) of the same compound?
A: > 100 µM (inactive)

Q: And the GI50 (ACHN)?
A: > 100 µM (inactive)

Q: What about the GI50 (Malme-3M) of the same compound?
A: > 100 µM (inactive)

Q: And the GI50 (OVCAR-8)?
A: > 100 µM (inactive)

Q: And the GI50 (M19-MEL)?
A: > 100 µM (inactive)

Q: What about the GI50 (CAKI-1) of the same compound?
A: > 100 µM (inactive)

Q: What about the GI50 (RXF 631) of the same compound?
A: > 100 µM (inactive)

Q: What about the GI50 (SNB-78) of the same compound?
A: > 100 µM (inactive)

Q: And the GI50 (UO-31)?
A: > 100 µM (inactive)

Q: And the GI50 (CCRF-CEM)?
A: > 100 µM (inactive)

Q: And the GI50 (IGROV-1)?
A: > 100 µM (inactive)

Q: And the GI50 (RPMI-8226)?
A: > 100 µM (inactive)

Q: What about the GI50 (HCT-116) of the same compound?
A: > 100 µM (inactive)

Q: And the GI50 (HCT-15)?
A: > 100 µM

Q: And the GI50 (LOX IMVI)?
A: > 100 µM (inactive)

Q: And the GI50 (LXFL 529)?
A: > 100 µM (inactive)

Q: And the GI50 (K562)?
A: > 100 µM (inactive)

Q: What about the GI50 (786-0) of the same compound?
A: > 100 µM (inactive)

Q: And the GI50 (SF-539)?
A: > 100 µM (inactive)

Q: What about the GI50 (NCI-H522) of the same compound?
A: > 100 µM (inactive)

Q: What about the GI50 (NCI-H226) of the same compound?
A: > 100 µM (inactive)

Q: And the GI50 (DMS-273)?
A: > 100 µM (inactive)

Q: What about the GI50 (HOP-62) of the same compound?
A: > 100 µM (inactive)

Q: What about the GI50 (COLO 205) of the same compound?
A: > 100 µM (inactive)

Q: And the GI50 (HOP-92)?
A: > 100 µM (inactive)

Q: And the GI50 (OVCAR-3)?
A: > 100 µM (inactive)

Q: What about the GI50 (SK-MEL-2) of the same compound?
A: > 100 µM (inactive)

Q: And the GI50 (TK-10)?
A: > 100 µM (inactive)

Q: And the GI50 (HL-60)?
A: > 100 µM (inactive)

Q: What about the GI50 (UACC-257) of the same compound?
A: > 100 µM (inactive)

Q: What about the GI50 (SK-MEL-5) of the same compound?
A: > 100 µM (inactive)

Q: With CC(=O)C1C(=O)C(=O)N(c2ccc(Cl)cc2C)C1=O (stereo unspecified) as the compound, how does the GI50 (U-251) read?
A: > 100 µM (inactive)

Q: What about the GI50 (OVCAR-4) of the same compound?
A: > 100 µM (inactive)

Q: What about the GI50 (M14) of the same compound?
A: > 100 µM (inactive)

Q: And the GI50 (KM12)?
A: > 100 µM (inactive)

Q: What about the GI50 (NCI-H460) of the same compound?
A: > 100 µM (inactive)

Q: What about the GI50 (DLD-1) of the same compound?
A: > 100 µM (inactive)

Q: And the GI50 (UACC-62)?
A: > 100 µM (inactive)

Q: What about the GI50 (OVCAR-5) of the same compound?
A: > 100 µM (inactive)

Q: What about the GI50 (SK-MEL-28) of the same compound?
A: > 100 µM (inactive)

Q: And the GI50 (HT-29)?
A: > 100 µM (inactive)

Q: What about the GI50 (RXF 393) of the same compound?
A: > 100 µM (inactive)

Q: And the GI50 (SR)?
A: > 100 µM (inactive)

Q: What about the GI50 (HCC 2998) of the same compound?
A: > 100 µM (inactive)

Q: And the GI50 (NCI-H23)?
A: > 100 µM (inactive)

Q: And the GI50 (EKVX)?
A: > 100 µM (inactive)

Q: And the GI50 (SNB-19)?
A: > 100 µM (inactive)

Q: And the GI50 (SN12C)?
A: > 100 µM (inactive)

Q: And the GI50 (HOP-18)?
A: > 100 µM (inactive)

Q: And the GI50 (A498)?
A: > 100 µM (inactive)

Q: And the GI50 (A549)?
A: > 100 µM (inactive)

Q: And the GI50 (DMS-114)?
A: > 100 µM (inactive)

Q: What about the GI50 (SW-620) of the same compound?
A: > 100 µM (inactive)

Q: What about the GI50 (SF-295) of the same compound?
A: > 100 µM (inactive)

Q: What about the GI50 (KM-20L2) of the same compound?
A: > 100 µM (inactive)

Q: And the GI50 (SF-268)?
A: > 100 µM (inactive)

Q: What about the GI50 (MOLT-4) of the same compound?
A: > 100 µM (inactive)

Q: What about the GI50 (ACHN) of the same compound?
A: > 100 µM (inactive)

Q: What about the GI50 (Malme-3M) of the same compound?
A: > 100 µM (inactive)

Q: And the GI50 (OVCAR-8)?
A: > 100 µM (inactive)

Q: What about the GI50 (M19-MEL) of the same compound?
A: > 100 µM (inactive)

Q: What about the GI50 (RXF 631) of the same compound?
A: > 100 µM (inactive)

Q: And the GI50 (SNB-78)?
A: > 100 µM (inactive)

Q: And the GI50 (UO-31)?
A: > 100 µM (inactive)

Q: What about the GI50 (CCRF-CEM) of the same compound?
A: > 100 µM (inactive)

Q: What about the GI50 (IGROV-1) of the same compound?
A: > 100 µM (inactive)

Q: What about the GI50 (HCT-116) of the same compound?
A: > 100 µM (inactive)

Q: What about the GI50 (HCT-15) of the same compound?
A: > 100 µM

Q: What about the GI50 (LXFL 529) of the same compound?
A: > 100 µM (inactive)

Q: And the GI50 (K562)?
A: > 100 µM (inactive)

Q: What about the GI50 (786-0) of the same compound?
A: > 100 µM (inactive)

Q: What about the GI50 (SF-539) of the same compound?
A: > 100 µM (inactive)

Q: And the GI50 (NCI-H522)?
A: > 100 µM (inactive)

Q: What about the GI50 (HOP-62) of the same compound?
A: > 100 µM (inactive)

Q: And the GI50 (COLO 205)?
A: > 100 µM (inactive)

Q: What about the GI50 (HOP-92) of the same compound?
A: > 100 µM (inactive)

Q: What about the GI50 (SK-MEL-2) of the same compound?
A: > 100 µM (inactive)

Q: And the GI50 (TK-10)?
A: > 100 µM (inactive)

Q: What about the GI50 (HL-60) of the same compound?
A: > 100 µM (inactive)

Q: And the GI50 (UACC-257)?
A: > 100 µM (inactive)

Q: What about the GI50 (SK-MEL-5) of the same compound?
A: > 100 µM (inactive)
